As a reminder, the IC50 is the concentration that inhibits the measured activity by half.

Test [1] deals with U87 (p53 wild-type) glioblastoma cells. In words: MTT cytotoxic activity assay, U87 cells. Particulars: for IC50: 24 h exposure, MTT; for Selectivity index U87: SI = IC50 MRC5/IC50 tumor cell. The format is cell-based, human. Here is the method:
(§1) Malignant human Glioblastoma tumor cell lines U87 (p53 wild-type), T98 (p53 mutant) and normal cells MRC5 (Human Fetal Lung Fibroblast) were obtained from the American Type Culture Collection (ATCC, USA). The cells were maintained in Dulbecco’s Modified Eagle’s Medium (DMEM, Gibco), supplemented with 10% fetal bovine serum (FBS-Cultilab) and antibiotics (50 U/ml penicillin, […] streptomycin), at 37 °C in a humidified 5% CO2 atmosphere. For all experiments, cells were seeded at appropriate concentrations to ensure exponential growth.
(§2) The cytotoxicity of ruthenium(II) compounds was determined by measuring mitochondrial activity as a indicator of cell viability dependent on the reduction of MTT 3-(4,5-dimethylthiazol-2-yl)-2,5-diphenyl tetrazolium bromide to formazan (Mosmann [1983]). Cells (1.5 × 10^3/well) were seeded in 200 μl complete medium into 96-well microplates in triplicates. The plates were incubated at 37 °C in 5% CO2 for 24 h to allow cell adhesion, prior to drug testing. All radioactive or non-radioactive tested compounds were dissolved in sterile DMSO and diluted to reach final concentrations ranging from 1 × 10^−10 to 1 × 10^−4 mol l^−1. Cells were exposed to the compounds for a 24 h period and then, 0.5 mg ml^−1 of MTT solution was added to each well and further incubated for 4 h. The precipitated formazan crystals were dissolved in DMSO and the absorbance of produced color measured spectrophotometrically at 570 nm. The results were expressed as % viability of non-treated cell (control) versus drug concentration and the concentration that reduces cell viability by 50% (IC50) was calculated.

In test [2] the test system is T98 (p53 mutant) glioblastoma cells. Nature of the test: MTT cytotoxic activity assay, T98 cells. The format is cell-based, human. The following applies: for IC50: 24 h exposure, MTT; for Selectivity index T98: SI = IC50 MRC5/IC50 tumor cell. The procedure: as §1, §2
(Tetrazolium dyes change colour on reduction, which living cells bring about.)

Test [3] concerns MRC5 (Human Fetal Lung Fibroblast). In words: MTT cytotoxic activity assay, MRC5 normal cells. The format is cell-based. Particulars: 24 h exposure. Here is the method:
as §1, §2

[4] abbreviates: radioactive (neutron activated) compounds.
Where [5] appears, read: Radioactive (neutron activated form).
Where [6] appears, read: non-radioactive compounds, listed as [Ru(pic)(bipy)(dppp)]PF6.
Where [7] appears, read: non-radioactive compounds, listed as [Ru(pic)(bipy)(dppf)]PF6.

As for “[^103Ru(pic)(bipy)(dppp)]PF6 [[^103Ru(pic)(bipy)(dppp)]PF6 (4)]”, the IC50 in test [1] (setting [4]) is 0.31 nM; in test [2] (setting [4]), 0.62 nM; in test [3] (setting [4]) it was 0.47 nM.

As to “[^103Ru(pic)(bipy)(dppe)]PF6 [[^103Ru(pic)(bipy)(dppe)]PF6 (2)]”, the values for the IC50 in test [1] (setting [4]), in test [2] (setting [4]) and in test [3] (setting [4]) were 0.23 nM, 0.52 nM and 0.2 nM, respectively.

As to `F[P-](F)(F)(F)(F)F.O=C([O-])c1ccccn1.[Ru+2].c1ccc(-c2ccccn2)nc1.c1ccc(P(CCCP(c2ccccc2)c2ccccc2)c2ccccc2)cc1` [[Ru(pic)(bipy)(dppp)]PF6 (4), [Ru(pic)(bipy)(dppp)]PF6], the entries for the “Selectivity index U87” value in test [1] (Non-radioactive) and in test [1] (setting [5]) were 0.29 and 1.52, respectively. The IC50 stood at 4900 ± 2500 nM in test [1] (non-radioactive compounds); 4920 ± 2460 nM in test [1] (setting [6]); 1500 ± 500 nM in test [2] (non-radioactive compounds); 1490 ± 500 nM in test [2] (setting [6]); 1470 ± 600 nM in test [3] (non-radioactive compounds). Also, the entries for the “Selectivity index T98” value in test [2] (Non-radioactive) and in test [2] (setting [5]) were 0.98 and 0.76, respectively.

In the case of `F[P-](F)(F)(F)(F)F.O=C([O-])c1ccccn1.[Ru+2].c1ccc(-c2ccccn2)nc1.c1ccc(P(CCCCP(c2ccccc2)c2ccccc2)c2ccccc2)cc1` [[Ru(pic)(bipy)(dppb)]PF6 (1), [Ru(pic)(bipy)(dppb)]PF6], the “Selectivity index U87” value in test [1] (Non-radioactive) is on record as 2.55; in test [1] (setting [5]), 1.63. Also, the IC50 in test [1] (non-radioactive compounds) worked out at 16100 ± 3300 nM; in test [2] (non-radioactive compounds), 11900 ± 5900 nM; in test [3] (non-radioactive compounds), 41000 ± 10100 nM. Besides, the “Selectivity index T98” value is listed as 3.45 in test [2] (Non-radioactive) and 1.14 in test [2] (setting [5]).

With `F[P-](F)(F)(F)(F)F.O=C([O-])c1ccccn1.[Fe+2].[Ru+2].c1ccc(-c2ccccn2)nc1.c1ccc(P(c2ccccc2)[c-]2cccc2)cc1.c1ccc(P(c2ccccc2)[c-]2cccc2)cc1` [[Ru(pic)(bipy)(dppf)]PF6 (3), [Ru(pic)(bipy)(dppf)]PF6], the “Selectivity index U87” value stood at 2.23 in test [1] (Non-radioactive) and 0.90 in test [1] (setting [5]). Also, the IC50 came out at 4000 ± 8500 nM in test [1] (non-radioactive compounds); 3980 ± 850 nM in test [1] (setting [7]); 3000 ± 700 nM in test [2] (non-radioactive compounds); 3050 ± 720 nM in test [2] (setting [7]); 8900 ± 2300 nM in test [3] (non-radioactive compounds). The “Selectivity index T98” value in test [2] (Non-radioactive) came out at 2.91; in test [2] (setting [5]), 0.70.

With “[^103Ru(pic)(bipy)(dppf)]PF6 [[^103Ru(pic)(bipy)(dppf)]PF6 (3)]”, the values for the IC50 in test [1] (setting [4]), in test [2] (setting [4]) and in test [3] (setting [4]) were 0.42 nM, 0.54 nM and 0.38 nM, respectively.

`N.N.[Cl][Pt][Cl]` [Cisplatin, reference compound]: the “Selectivity index U87” value in test [1] (Non-radioactive) is 2.87. The IC50 in test [1] (non-radioactive compounds) worked out at 1800 ± 200 nM; in test [2] (non-radioactive compounds), 5300 ± 1900 nM; in test [3] (non-radioactive compounds), 5050 ± 700 nM. Further, the “Selectivity index T98” value in test [2] (Non-radioactive) was 0.95.

For “[^103Ru(pic)(bipy)(dppb)]PF6 [[^103Ru(pic)(bipy)(dppb)]PF6 (1)]”, the half-maximal inhibitory concentration (IC50) in test [1] (setting [4]) turned out to be 0.24 nM; in test [2] (setting [4]) it was 0.34 nM; in test [3] (setting [4]) it was 0.39 nM.

For `F[P-](F)(F)(F)(F)F.O=C([O-])c1ccccn1.[Ru+2].c1ccc(-c2ccccn2)nc1.c1ccc(P(CCP(c2ccccc2)c2ccccc2)c2ccccc2)cc1` [[Ru(pic)(bipy)(dppe)]PF6 (2), [Ru(pic)(bipy)(dppe)]PF6], the “Selectivity index U87” value stood at 2.95 in test [1] (Non-radioactive) and 0.87 in test [1] (setting [5]). Besides, the 50% inhibitory concentration (IC50) stood at 27800 ± 11700 nM in test [1] (non-radioactive compounds), 19000 ± 5900 nM in test [2] (non-radioactive compounds) and 82100 ± 9100 nM in test [3] (non-radioactive compounds). Besides, the “Selectivity index T98” value is on record as 4.32 in test [2] (Non-radioactive) and 0.39 in test [2] (setting [5]).

For the origin of these results see PMC5352776, “Neutron activation increases activity of ruthenium-based complexes and induces cell death in glioma cells independent of p53 tumor suppressor gene” (Biometals, 2017).
